The values below are quoted from earlier work in patent US20100291025A1, “INDAZOLE INHIBITORS OF TYROSINE KINASE” (AUSPEX PHARMACEUTICALS, INC., priority 2009, published 2010).

The conditions of this data set: in vivo.

In the case of `Cc1ccc(Nc2nccc(N(C)c3ccc4c(C)n(C)nc4c3)n2)cc1S(N)(=O)=O` [Pazopanib, 5-[[4-[(2,3-Dimethyl-2H-indazol-6-yl)(methyl)amino]pyrimidin-2-yl]amino]-2-methylbenzenesulfonamide], the “adverse effects associated with administration” value is “nausea, diarrhea, anorexia, hypertension, fatigue, hair depigmentation, and vomiting”.
